Results reported in patent publication US20260200893A1, “INHIBITORS OF PROCASPASE-6 ACTIVATION AND USES THEREOF” (THE REGENTS OF THE UNIVERSITY OF CALIFORNIA, priority 2022, published 2026).

Target: T1, procaspase-6 (Homo sapiens, UniProt P55212)
T1 sequence (P55212 1-293): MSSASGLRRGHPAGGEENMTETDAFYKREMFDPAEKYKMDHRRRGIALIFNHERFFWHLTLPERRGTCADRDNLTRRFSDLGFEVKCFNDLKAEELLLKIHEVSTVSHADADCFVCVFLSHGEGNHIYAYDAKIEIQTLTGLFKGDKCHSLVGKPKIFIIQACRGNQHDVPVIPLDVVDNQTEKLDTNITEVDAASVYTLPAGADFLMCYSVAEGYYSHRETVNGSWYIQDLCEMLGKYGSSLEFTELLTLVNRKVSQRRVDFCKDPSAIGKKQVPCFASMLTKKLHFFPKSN
Assay: SPR binding affinity for procaspase-6 (avi-tagged, biotinylated construct on neutravidin chip, Biacore 8K)
Details: binding affinities for procaspase-6, SPR
From the text: We used SPR to assess the binding affinity of test compounds, using an avi-tagged (biotinylated) procaspase-6 construct that was captured onto a neutravidin-coated sensor chip in a Biacore 8K instrument. […] The average of the triplicate KD values for each analog was furthermore used to calculate the experimental binding energies (ΔG) provided in the figures that follow.

Structure (SMILES)	Kd [µM]
c1cnc(NCc2cccc3cnoc23)c(-c2ncc[nH]2)c1 [ELG-000560, N-(benzo[d]isoxazol-7-ylmethyl)-3-(1H-imidazol-2-yl)pyridin-2-amine]	10 to 50
Fc1ccc(CNc2ncccc2-c2cccnn2)c2sccc12 [ELG-000515, N-((4-fluorobenzo[b]thiophen-7-yl)methyl)-3-(pyridazin-3-yl)pyridin-2-amine]	< 10
c1ccc(-c2cccnc2NCc2cccc3cc[nH]c23)nc1 [ELG-000463]	50 to 100
Fc1ccc(CNc2ncccc2-c2ccccn2)c2[nH]ncc12 [ELG-000499, N-((4-fluoro-1H-indazol-7-yl)methyl)-[2,3′-bipyridin]-2′-amine]	< 10
Fc1ccc(CNc2ncccc2-c2ccccn2)c2sncc12 [ELG-000549, N-((4-fluorobenzo[d]isothiazol-7-yl)methyl)-[2,3′-bipyridin]-2′-amine]	> 100
c1cnc(NCc2cccc3ccsc23)c(-c2ncc[nH]2)c1 [ELG-000534, N-(benzo[b]thiophen-7-ylmethyl)-3-(1H-imidazol-2-yl)pyridin-2-amine]	> 100
c1ccc(-c2cccnc2NCc2cccc3ccoc23)nc1 [ELG-000468, N-(benzofuran-7-ylmethyl)-[2,3′-bipyridin]-2′-amine]	50 to 100
c1ccc(-c2cccnc2NCc2cccc3ccsc23)nc1 [ELG-000510, N-(benzo[b]thiophen-7-ylmethyl)-[2,3′-bipyridin]-2′-amine]	50 to 100
Fc1ccc(CNc2ncccc2-c2cccnn2)c2[nH]ccc12 [ELG-000504, N-((4-fluoro-1H-indol-7-yl)methyl)-3-(pyridazin-3-yl)pyridin-2-amine]	< 10
Fc1ccc(CNc2ncccc2-c2ncc[nH]2)c2sncc12 [ELG-000548]	50 to 100
Fc1ccc(CNc2ncccc2-c2cccnn2)c2[nH]ncc12 [ELG-000506, N-((4-fluoro-1H-indazol-7-yl)methyl)-3-(pyridazin-3-yl)pyridin-2-amine]	< 10
c1cnc(NCc2cccc3cnsc23)c(-c2ncc[nH]2)c1 [ELG-000558]	50 to 100
c1cnc(NCc2cccc3cc[nH]c23)c(-c2ncc[nH]2)c1 [ELG-000523, N-((1H-indol-7-yl)methyl)-3-(1H-imidazol-2-yl)pyridin-2-amine]	10 to 50
c1ccc(-c2cccnc2NCc2cccc3cnsc23)nc1 [ELG-000552, N-(benzo[d]isothiazol-7-ylmethyl)-[2,3′-bipyridin]-2′-amine]	50 to 100
c1ccc(-c2cccnc2NCc2cccc3scnc23)nc1 [ELG-000511]	50 to 100
c1ccc(-c2cccnc2NCc2cccc3cn[nH]c23)nc1 [ELG-000472, N-((1H-indazol-7-yl)methyl)-[2,3′-bipyridin]-2′-amine]	50 to 100
c1cnc(NCc2cccc3ccoc23)c(-c2ncc[nH]2)c1 [ELG-000535]	50 to 100
Fc1ccc(CNc2ncccc2-c2cccnn2)c2ncsc12 [ELG-000522, N-((7-fluorobenzo[d]thiazol-4-yl)methyl)-3-(pyridazin-3-yl)pyridin-2-amine]	< 10
c1cnnc(-c2cccnc2NCc2cccc3cnoc23)c1 [ELG-000563]	50 to 100

Structure (SMILES)	Kd [µM]
c1ccc(-c2cccnc2NCc2cccc3ocnc23)nc1 [ELG-000497]	50 to 100
c1cnc(NCc2cccc3ocnc23)c(-c2ncc[nH]2)c1 [ELG-000537, N-(benzo[d]oxazol-4-ylmethyl)-3-(1H-imidazol-2-yl)pyridin-2-amine]	50 to 100
Fc1ccc(CNc2ncccc2-c2ccccn2)c2sccc12 [ELG-000518]	50 to 100
Fc1ccc(CNc2ncccc2-c2ncc[nH]2)c2[nH]ncc12 [ELG-000525, N-((4-fluoro-1H-indazol-7-yl)methyl)-3-(1H-imidazol-2-yl)pyridin-2-amine]	< 10
Fc1ccc(CNc2ncccc2-c2ncc[nH]2)c2sccc12 [ELG-000530, N-((4-fluorobenzo[b]thiophen-7-yl)methyl)-3-(1H-imidazol-2-yl)pyridin-2-amine]	10 to 50
c1cnnc(-c2cccnc2NCc2cccc3cnsc23)c1 [ELG-000559]	50 to 100
Fc1ccc(CNc2ncccc2-c2cccnn2)c2occc12 [ELG-000481, N-((4-fluorobenzofuran-7-yl)methyl)-3-(pyridazin-3-yl)pyridin-2-amine]	10 to 50
c1cnc(NCc2cccc3scnc23)c(-c2ncc[nH]2)c1 [ELG-000531, N-(benzo[d]thiazol-4-ylmethyl)-3-(1H-imidazol-2-yl)pyridin-2-amine]	50 to 100
c1cnc(NCc2cccc3cn[nH]c23)c(-c2ncc[nH]2)c1 [ELG-000538, N-((1H-indazol-7-yl)methyl)-3-(1H-imidazol-2-yl)pyridin-2-amine]	10 to 50
Fc1ccc(CNc2ncccc2-c2ncc[nH]2)c2ncsc12 [ELG-000526, N-((7-fluorobenzo[d]thiazol-4-yl)methyl)-3-(1H-imidazol-2-yl)pyridin-2-amine]	10 to 50
c1cnnc(-c2cccnc2NCc2cccc3ccoc23)c1 [ELG-000488, N-(benzofuran-7-ylmethyl)-3-(pyridazin-3-yl) pyridin-2-amine]	10 to 50
Fc1ccc(CNc2ncccc2-c2cccnn2)c2sncc12 [ELG-000532, N-((4-fluorobenzo[d]isothiazol-7-yl)methyl)-3-(pyridazin-3-yl)pyridin-2-amine]	10 to 50
Fc1ccc(CNc2ncccc2-c2ccccn2)c2occc12 [ELG-000469, N-((4-fluorobenzofuran-7-yl)methyl)-[2,3′-bipyridin]-2′-amine]	50 to 100
c1ccc(-c2cccnc2NCc2cccc3cnoc23)nc1 [ELG-000567, N-(benzo[d]isoxazol-7-ylmethyl)-[2,3′-bipyridin]-2′-amine]	50 to 100
c1cnnc(-c2cccnc2NCc2cccc3scnc23)c1 [ELG-000507, N-(benzo[d]thiazol-4-ylmethyl)-3-(pyridazin-3-yl)pyridin-2-amine]	< 10
c1cnnc(-c2cccnc2NCc2cccc3ocnc23)c1 [ELG-000491, N-(benzo[d]oxazol-4-ylmethyl)-3-(pyridazin-3-yl)pyridin-2-amine]	< 10
Fc1ccc(CNc2ncccc2-c2ncc[nH]2)c2[nH]ccc12 [ELG-000536, N-((4-fluoro-1H-indol-7-yl)methyl)-3-(1H-imidazol-2-yl)pyridine-2-amine]	10 to 50
c1cnnc(-c2cccnc2NCc2cccc3ccsc23)c1 [ELG-000502, N-(benzo[b]thiophen-7-ylmethyl)-3-(pyridazin-3-yl)pyridin-2-amine]	10 to 50
Fc1ccc(CNc2ncccc2-c2ccccn2)c2[nH]ccc12 [ELG-000483]	50 to 100
